In patent publication US10131744B2, “Antimicrobial polyamide compositions and mastitis treatment” (priority 2013, dated 2018):
Read-outs that look alike come from different tables or passages of the source.

Columns and labels:
Mycoplasma bovis = assay: organism not typed; assay type: cell-based
[1] = test system: Actinobacillus pleuropneumoniae; assay: MIC in broth against Actinobacillus pleuropneumoniae; assay type: cell-based
Procedure: (§1) The antimicrobial efficacy of twenty-five antimicrobial polymers (and Erythromycin) was evaluated using an MIC assay. For each study, a doubling dilution concentration of each antimicrobial polymer was prepared at 2× the final concentration range (0.12 to 16 μg/mL), and 100 μL of the API-null formulation was dispensed into the negative control wells. Overall, the antimicrobial polymer-containing compositions performed comparably well, or better, against the pathogens, as compared to Erythromycin (ERY).

Escherichia coli = assay: MIC in broth against Escherichia coli; assay type: cell-based
Procedure: as §1

Mannheimia haemolytica = assay: MIC in broth against Mannheimia haemolytica; assay type: cell-based
Procedure: as §1

Proteus mirabilis = assay: MIC in broth against Proteus mirabilis; assay type: cell-based
Procedure: as §1

[2] = test system: Pasteurella multocida (Canine and BRD); assay: MIC in broth against Pasteurella multocida; assay type: cell-based
Procedure: as §1

Streptococcus agalactiae = assay: MIC in broth against Streptococcus agalactiae; assay type: cell-based; design: unit not given beside the values
Procedure: as §1

[3] = test system: Staphylococcus pseudintermedius (including MRSP); assay: MIC in broth against Staphylococcus pseudintermedius (including MRSP); assay type: cell-based; design: unit not given beside the values
Procedure: as §1

Serratia marcescens = assay: MIC in broth against Serratia marcescens; assay type: cell-based; design: unit not given beside the values
Procedure: as §1

Streptococcus canis = assay: MIC in broth against Streptococcus canis; assay type: cell-based; design: unit not given beside the values
Procedure: as §1

[4] = test system: Coagulase negative Staphylococcus species; assay: MIC in broth against coagulase negative Staphylococcus species; assay type: cell-based
Procedure: as §1

[5] = test system: E. faecalis (Str-15) ATCC 29212; conditions: cited from earlier work

CC[C@H]1OC(=O)[C@H](C)[C@@H](O[C@H]2C[C@@](C)(OC)[C@@H](O)[C@H](C)O2)[C@H](C)[C@@H](O[C@@H]2O[C@H](C)C[C@H](N(C)C)[C@H]2O)[C@](C)(O)C[C@@H](C)C(=O)[C@H](C)[C@@H](O)[C@]1(C)O [Ery, Erythromycin]
2 µg/mL: MIC ([1]; isolate # 237 (porcine lung, SRD), read-out: MIC against Actinobacillus pleuropneumoniae) | MIC (Escherichia coli; isolate # 1 (mastitis)) | MIC (Mannheimia haemolytica; isolate # 162)
>8 µg/mL: MIC against Proteus mirabilis (Proteus mirabilis; isolate # 48) | MIC against Proteus mirabilis (Proteus mirabilis; isolate # 49) | MIC against Proteus mirabilis (Proteus mirabilis; isolate # 50) | MIC against Proteus mirabilis (Proteus mirabilis; isolate # 51) | MIC against Proteus mirabilis (Proteus mirabilis; isolate # 53) | MIC against Proteus mirabilis (Proteus mirabilis; isolate # 54) | MIC against Proteus mirabilis (Proteus mirabilis; isolate # 55) | MIC against Proteus mirabilis (Proteus mirabilis; isolate # 56) | MIC against Proteus mirabilis (Proteus mirabilis; isolate # 57)
1 µg/mL: MIC (Mannheimia haemolytica; isolate # 166)
8 µg/mL: MIC ([1]; A. pleuro. (AC-1) ATTC 27090, read-out: MIC) | MIC ([1]; isolates # 232-236 (porcine lung, SRD), read-out: MIC against Actinobacillus pleuropneumoniae)
> 8 µg/mL: MIC (Mycoplasma bovis; Mycoplasmopsis bovis, isolate # 248 (mastitis), read-out: MIC against Mycoplasma bovis) | MIC (Mycoplasma bovis; Mycoplasmopsis bovis, isolate # 249 (mastitis), read-out: MIC against Mycoplasma bovis) | MIC (Mycoplasma bovis; Mycoplasmopsis bovis, isolate # 250 (mastitis), read-out: MIC against Mycoplasma bovis) | MIC (Mycoplasma bovis; Mycoplasmopsis bovis, isolate # 251 (mastitis), read-out: MIC against Mycoplasma bovis) | MIC (Mycoplasma bovis; Mycoplasmopsis bovis, isolate # 252 (mastitis), read-out: MIC against Mycoplasma bovis) | MIC (Mycoplasma bovis; Mycoplasmopsis bovis, isolate # 254 (mastitis), read-out: MIC against Mycoplasma bovis) | MIC (Mycoplasma bovis; Mycoplasmopsis bovis, isolate # 255 (mastitis), read-out: MIC against Mycoplasma bovis) | MIC (Mycoplasma bovis; Mycoplasmopsis bovis, isolate # 256 (mastitis), read-out: MIC against Mycoplasma bovis) | MIC (Mycoplasma bovis; Mycoplasmopsis bovis, isolate # 257 (mastitis), read-out: MIC against Mycoplasma bovis) | MIC (Escherichia coli; isolate # 2 (mastitis)) | MIC (Escherichia coli; isolate # 3 (mastitis)) | MIC (Escherichia coli; isolate # 4 (mastitis)) | MIC (Escherichia coli; isolate # 5 (mastitis)) | MIC (Escherichia coli; isolate # 6 (mastitis)) | MIC (Escherichia coli; isolate # 7 (mastitis)) | MIC (Escherichia coli; isolate # 8 (mastitis)) | MIC (Escherichia coli; isolate # 9 (mastitis)) | MIC (Escherichia coli; isolate # 10 (mastitis)) | MIC (Escherichia coli; isolate # 11 (canine wound)) | MIC (Escherichia coli; isolate # 12 (canine wound)) | MIC (Escherichia coli; isolate # 13 (canine wound)) | MIC (Escherichia coli; isolate # 14 (canine wound)) | MIC (Escherichia coli; isolate # 15 (canine wound)) | MIC (Escherichia coli; isolate # 16 (canine wound)) | MIC (Escherichia coli; isolate # 17 (canine wound)) | MIC (Escherichia coli; isolate # 18 (canine wound)) | MIC (Escherichia coli; isolate # 19 (canine wound)) | MIC (Escherichia coli; isolate # 20 (canine wound)) | MIC (Mannheimia haemolytica; isolate # 159) | MIC (Mannheimia haemolytica; isolate # 161) | MIC (Mannheimia haemolytica; isolate # 164) | MIC (Mannheimia haemolytica; isolate # 165) | MIC (Proteus mirabilis; Proteus mirabilis, isolate # 52)
4 µg/mL: MIC (Mycoplasma bovis) | MIC (Mycoplasma bovis; Mycoplasmopsis bovis, isolate # 253 (mastitis), read-out: MIC against Mycoplasma bovis) | MIC ([1]; isolates # 228-231, 235 (porcine lung, SRD), read-out: MIC against Actinobacillus pleuropneumoniae) | MIC (Mannheimia haemolytica; isolate # 158) | MIC (Mannheimia haemolytica; isolate # 160) | MIC (Mannheimia haemolytica; isolate # 163) | MIC (Mannheimia haemolytica; isolate # 167)
8: MIC against Pasteurella multocida ([2]; strain # 174)
0.5: MIC against Pasteurella multocida ([2]; strain # 168) | MIC against Pasteurella multocida ([2]; strain # 171) | MIC against Pasteurella multocida ([2]; strain # 176)
0.06: MIC against Streptococcus agalactiae (Streptococcus agalactiae; isolate # 189) | MIC against Streptococcus agalactiae (Streptococcus agalactiae; isolate # 192) | MIC against Streptococcus agalactiae (Streptococcus agalactiae; isolate # 193) | MIC against Streptococcus canis (Streptococcus canis; isolate # 198) | MIC against Streptococcus canis (Streptococcus canis; isolate # 199) | MIC against Streptococcus canis (Streptococcus canis; isolate # 201) | MIC against Streptococcus canis (Streptococcus canis; isolate # 202) | MIC against Streptococcus canis (Streptococcus canis; isolate # 203) | MIC against Streptococcus canis (Streptococcus canis; isolate # 204) | MIC against Streptococcus canis (Streptococcus canis; isolate # 205) | MIC against Streptococcus canis (Streptococcus canis; isolate # 206) | MIC against Streptococcus canis (Streptococcus canis; isolate # 207)
0.12: MIC against Staphylococcus pseudintermedius (+ MSRP) ([3]; isolate # 135) | MIC against Staphylococcus pseudintermedius (+ MSRP) ([3]; isolate # 137) | MIC against Streptococcus canis (Streptococcus canis; isolate # 200)
0.12 µg/mL: MIC ([4]; isolate # 148) | MIC ([4]; isolate # 149) | MIC ([4]; isolate # 157)
0.03: MIC against Streptococcus agalactiae (Streptococcus agalactiae; isolate # 188) | MIC against Streptococcus agalactiae (Streptococcus agalactiae; isolate # 190) | MIC against Streptococcus agalactiae (Streptococcus agalactiae; isolate # 191) | MIC against Streptococcus agalactiae (Streptococcus agalactiae; isolate # 194) | MIC against Streptococcus agalactiae (Streptococcus agalactiae; isolate # 195) | MIC against Streptococcus agalactiae (Streptococcus agalactiae; isolate # 196) | MIC against Streptococcus agalactiae (Streptococcus agalactiae; isolate # 197)
0.25 µg/mL: MIC ([4]; isolate # 150) | MIC ([4]; isolate # 151) | MIC ([4]; isolate # 152) | MIC ([4]; isolate # 155) | MIC ([4]; isolate # 156)
1: MIC against Pasteurella multocida ([2]; strain # 169) | MIC against Pasteurella multocida ([2]; strain # 170) | MIC against Pasteurella multocida ([2]; strain # 172) | MIC against Pasteurella multocida ([2]; strain # 175)
0.25: MIC against Staphylococcus pseudintermedius (+ MSRP) ([3]; isolate # 128) | MIC against Staphylococcus pseudintermedius (+ MSRP) ([3]; isolate # 129) | MIC against Staphylococcus pseudintermedius (+ MSRP) ([3]; isolate # 130) | MIC against Staphylococcus pseudintermedius (+ MSRP) ([3]; isolate # 131) | MIC against Staphylococcus pseudintermedius (+ MSRP) ([3]; isolate # 132) | MIC against Staphylococcus pseudintermedius (+ MSRP) ([3]; isolate # 133) | MIC against Staphylococcus pseudintermedius (+ MSRP) ([3]; isolate # 134) | MIC against Staphylococcus pseudintermedius (+ MSRP) ([3]; isolate # 136) | MIC against Staphylococcus pseudintermedius (+ MSRP) ([3]; isolate # 139)
1 to 4 µg/mL: Known range (MIC) [5]
0.5 µg/mL: MIC ([4]; isolate # 153) | MIC ([4]; isolate # 154)
2: MIC against Pasteurella multocida ([2]; strain # 173) | MIC against Pasteurella multocida ([2]; strain # 177) | MIC against Pasteurella multocida ([2]; strain # 179) | MIC against Pasteurella multocida ([2]; strain # 180) | MIC against Pasteurella multocida ([2]; strain # 181) | MIC against Pasteurella multocida ([2]; strain # 182) | MIC against Pasteurella multocida ([2]; strain # 184) | MIC against Pasteurella multocida ([2]; strain # 186)
>8: MIC against Pasteurella multocida ([2]; strain # 183) | MIC against Pasteurella multocida ([2]; strain # 185) | MIC against Pasteurella multocida ([2]; strain # 187) | MIC against Staphylococcus pseudintermedius (+ MSRP) ([3]; isolate # 138) | MIC against Staphylococcus pseudintermedius (+ MSRP) ([3]; isolate # 140) | MIC against Staphylococcus pseudintermedius (+ MSRP) ([3]; isolate # 141) | MIC against Staphylococcus pseudintermedius (+ MSRP) ([3]; isolate # 142) | MIC against Staphylococcus pseudintermedius (+ MSRP) ([3]; isolate # 143) | MIC against Staphylococcus pseudintermedius (+ MSRP) ([3]; isolate # 144) | MIC against Staphylococcus pseudintermedius (+ MSRP) ([3]; isolate # 145) | MIC against Staphylococcus pseudintermedius (+ MSRP) ([3]; isolate # 146) | MIC against Staphylococcus pseudintermedius (+ MSRP) ([3]; isolate # 147) | MIC against Serratia marcescens (Serratia marcescens; isolate # 68) | MIC against Serratia marcescens (Serratia marcescens; isolate # 69) | MIC against Serratia marcescens (Serratia marcescens; isolate # 70) | MIC against Serratia marcescens (Serratia marcescens; isolate # 71) | MIC against Serratia marcescens (Serratia marcescens; isolate # 72) | MIC against Serratia marcescens (Serratia marcescens; isolate # 73) | MIC against Serratia marcescens (Serratia marcescens; isolate # 74) | MIC against Serratia marcescens (Serratia marcescens; isolate # 75) | MIC against Serratia marcescens (Serratia marcescens; isolate # 76) | MIC against Serratia marcescens (Serratia marcescens; isolate # 77)
4: MIC against Pasteurella multocida ([2]; strain # 178)
